Test results: patent publication US6576632B1, “Biaryl compounds useful as anticancer agents” (Pfizer Inc, priority 1999, dated 2003)

melting point: 171 to 172 °C
Structure (SMILES): O=C(O)c1cccc(-c2cccc(CC(=O)N(Cc3ccccc3)[C@@H]3c4ccccc4CC[C@H]3Cc3ccccc3)c2)c1 (relative stereo) [Example 1, trans-3′-{[Benzyl-(2-benzyl-1,2,3,4-tetrahydro-naphthalen-1-yl)-carbamoyl]-methyl}-biphenyl-3-carboxylic acid]
